Where a name gives a salt, the structure may show the parent alone. Read-outs that look alike come from different tables or passages of the source.
Experiments:
[1] = tested on: Human breast cancer cell line KPL-4; experiment: Antitumor study (1): subcutaneously transplanted KPL-4 cells in nude mice; type: in vivo; settings: KPL-4 xenograft, BALB/c nude mice, last day of the study; ADC (1) […] iv Day 0; paclitaxel 15 mg/kg iv Day 0, 7; eribulin mesylate 0.8 mg/kg iv Day 0, 4
Text: The calculation formula is as shown below.
Human breast cancer cell line KPL-4, which was obtained from Dr. Junichi Kurebayashi in Kawasaki Medical School [British Journal of Cancer, (1999) 79 (5/6).

[2] = tested on: Human gastric cancer cell line NCI-N87; experiment: Antitumor study (3): subcutaneously transplanted NCI-N87 cells in nude mice; type: in vivo; settings: NCI-N87 xenograft, ADC (1) 1 mg/kg iv Day 0, paclitaxel 15 mg/kg iv Day 0, 7, eribulin mesylate 0.4 mg/kg iv Day 0, 4
Protocol: (§1) Measurement and calculation formula: In all studies, the major axis and minor axis of tumors were measured twice a week with an electronic digital caliper (CD15-CX, Mitutoyo Corp.), and the tumor volume (mm^3) was calculated. The calculation formula is as shown below. Tumor volume(mm^3)=½×Major axis(mm)×[Minor axis (mm)]^2
(§2) Paclitaxel was dissolved with cremophor and ethanol (1:1), diluted with physiological saline, and then intravenously administered to the tail vein in a fluid volume of 10 or 20 mL/kg. Eribulin mesylate was diluted with physiological saline, and intravenously administered to the tail vein in a fluid volume of 10 mL/kg.
Human gastric cancer cell line NCI-N87, which was purchased from ATCC (American Type Culture Collection), was suspended into physiological saline, subcutaneously transplanted at 1×10^7 cells into the right side of female nude mice, and the mice were randomly grouped 6 days after the transplantation (Day 0). […] Paclitaxel was intravenously administered to the tail vein at a dose of 15 mg/kg on Day 0 and Day 7. Eribulin mesylate was intravenously administered to the tail vein at a dose of 0.4 mg/kg on Day 0 and Day 4. Single administration groups of each drug, a combined administration group, and a solvent administration group as a control group were set up.

[3] = tested on: Human breast cancer cell line JIMT-1; experiment: Antitumor study (2): subcutaneously transplanted JIMT-1 cells in nude mice; type: in vivo; settings: JIMT-1 xenograft, ADC (1) 10 mg/kg iv Day 0, paclitaxel 15 mg/kg iv Day 0, 7, 14, eribulin mesylate 0.8 mg/kg iv Day 0, 3
Protocol: as §1, §2
Human breast cancer cell line JIMT-1, which was purchased from DSMZ (Deutsche Sammlung von Mikroorganismen und Zellkulturen GmbH), was suspended into physiological saline, subcutaneously transplanted at 5×10^6 cells into the right side of female nude mice, and the mice were randomly grouped 13 days after the transplantation (Day 0). […] Paclitaxel was intravenously administered to the tail vein at a dose of 15 mg/kg on Day 0, Day 7 and Day 14. Eribulin mesylate was intravenously administered to the tail vein at a dose of 0.8 mg/kg on Day 0 and Day 3. Single administration groups of each drug, a combined administration group, and a solvent administration group as a control group were set up.

[4] = tested on: Human breast cancer cell line JIMT-1; settings: JIMT-1 xenograft, nude mice; ADC (2) 10 mg/kg iv Day 0, 7, 14; paclitaxel 15 mg/kg iv Day 0, 7
Protocol: as §1
(§3) Paclitaxel was dissolved with cremophor and ethanol (1:1), diluted with physiological saline, and then intravenously administered to the tail vein in a fluid volume of 10 or 20 mL/kg.
Human breast cancer cell line JIMT-1, which was purchased from DSMZ, was suspended into physiological saline, subcutaneously transplanted at 5×10^6 cells into the right side of female nude mice, and the mice were randomly grouped 10 days after the transplantation (Day 0). […] Paclitaxel was intravenously administered to the tail vein at a dose of 15 mg/kg on Day 0 and Day 7. Single administration groups of each drug, a combined administration group, and a solvent administration group as a control group were set up.

[5] = tested on: Human breast cancer cell line MDA-MB-453; experiment: Antitumor study (4): subcutaneously transplanted MDA-MB-453 cells in nude mice; settings: MDA-MB-453 xenograft, ADC (1) 0.5 mg/kg iv Day 0, paclitaxel 15 mg/kg iv Day 0, 7
Protocol: as §3
Human breast cancer cell line MDA-MB-453, which was purchased from ATCC, was suspended into Matrigel basal membrane matrix (Matrigel), subcutaneously transplanted at 1×10^7 cells into the right side of female nude mice, and the mice were randomly grouped 7 days after the transplantation (Day 0). […] Paclitaxel was intravenously administered to the tail vein at a dose of 15 mg/kg on Day 0 and Day 7. Single administration groups of each drug, a combined administration group, and a solvent administration group as a control group were set up.

[6] = tested on: Human lung cancer cell line NCI-H441; experiment: Antitumor study (6): subcutaneously transplanted NCI-H441 cells in nude mice; settings: NCI-H441 xenograft, ADC (1) 10 mg/kg iv Day 0, paclitaxel 15 mg/kg iv Day 0, 7
Protocol: as §1, §3
Human lung cancer cell line NCI-H441, which was purchased from ATCC, was suspended into Matrigel, subcutaneously transplanted at 5×10^6 cells into the right side of female nude mice, and the mice were randomly grouped 7 days after the transplantation (Day 0). […] Paclitaxel was intravenously administered to the tail vein at a dose of 15 mg/kg on Day 0 and Day 7. Single administration groups of each drug, a combined administration group, and a solvent administration group as a control group were set up.

[7] = tested on: Human ovarian cancer cell line OV-90; experiment: Antitumor study (8): subcutaneously transplanted OV-90 cells in nude mice; settings: OV-90 xenograft, Day 17, ADC (3) 10 mg/kg iv Day 0, paclitaxel 15 mg/kg iv Day 0, 7, 14
Protocol: as §1, §3
Human ovarian cancer cell line OV-90, which was purchased from ATCC, was suspended into Matrigel, subcutaneously transplanted at 2.5×10^6 cells into the right side of female nude mice, and the mice were randomly grouped 15 days after the transplantation (Day 0). […] Paclitaxel was intravenously administered to the tail vein at a dose of 15 mg/kg on Day 0, Day 7, and Day 14. Single administration groups of each drug, a combined administration group, and a solvent administration group as a control group were set up.

[8] = tested on: Human gastric cancer cell line SNU-1; experiment: Antitumor study (5): subcutaneously transplanted SNU-1 cells in nude mice; settings: SNU-1 xenograft, ADC (1) 10 mg/kg iv Day 0, paclitaxel 15 mg/kg iv Day 0, 7
Protocol: as §1, §3
Human gastric cancer cell line SNU-1, which was purchased from ATCC, was suspended into Matrigel, subcutaneously transplanted at 1×10^7 cells into the right side of female nude mice, and the mice were randomly grouped 28 days after the transplantation (Day 0). […] Paclitaxel was intravenously administered to the tail vein at a dose of 15 mg/kg on Day 0 and Day 7. Single administration groups of each drug, a combined administration group, and a solvent administration group as a control group were set up.

Row | Molecule | tumor growth inhibition (TGI) [1] [%] | TGI [2] [%] | TGI [3] [%] | TGI [4] [%] | TGI [5] [%] | TGI [6] [%] | TGI [7] [%] | TGI [8] [%]
1 | C=C1C[C@@H]2CC[C@@]34C[C@H]5O[C@H]6[C@@H](O3)[C@H]3O[C@H](CC[C@@H]3O[C@H]6[C@H]5O4)CC(=O)C[C@@H]3[C@@H](OC)[C@@H](C[C@H](O)CN)O[C@H]3C[C@H]3O[C@@H](CC[C@@H]1O2)C[C@@H](C)C3=C [eribulin mesylate] | 91 | 64 | 73 |  |  |  |  | 
2 | CC(=O)O[C@H]1C(=O)[C@@]2(C)[C@H]([C@H](OC(=O)c3ccccc3)[C@]3(O)C[C@H](OC(=O)[C@H](O)[C@@H](NC(=O)c4ccccc4)c4ccccc4)C(C)=C1C3(C)C)[C@]1(OC(C)=O)CO[C@@H]1C[C@@H]2O [paclitaxel] | 48 | 50 | 30 | 36 | 96 | 55 | 80 | 58
3 | antibody-drug conjugate (2): anti-HER3 antibody (SEQ ID NO: 3 and 4) conjugated to exatecan-derivative drug-linker via a thioether bond |  |  |  | 69 |  |  |  | 
4 | antibody-drug conjugate (3): anti-CDH6 antibody (SEQ ID NO: 11 residues 20-471, SEQ ID NO: 12 residues 21-233) conjugated to exatecan-derivative drug-linker via a thioether bond (conjugate, chains of the INN, looked up, exatecan-derivative drug-linker (deruxtecan)) VH: EVQLVQSGAEVKKPGASVKVSCKASGYTFTRNFMHWVRQAPGQGLEWMGWIYPGDGETEYAQKFQGRVTITADTSTSTAYMELSSLRSEDTAVYYCARGVYGGFAGGYFDFWGQGTLVTVSS VL: DIQMTQSPSSLSASVGDRVTITCKASQNIYKNLAWYQQKPGKAPKLLIYDANTLQTGVPSRFSGSGSGSDFTLTISSLQPEDFATYFCQQYYSGWAFGQGTKVEIK |  |  |  |  |  |  | 97 | 

Source: patent US12497465B2, “Combination of antibody-drug conjugate and tubulin inhibitor” (priority 2018, dated 2025)
